The record followed here is US8415469B2, “Compounds and methods for kinase modulation, and indications therefor” (Plexxikon Inc., priority 2005, dated 2013).

Structures are written as SMILES. pIC50: −log10 of the molar value.

What all share (assay type): biochemical
In one assay the target is T1, Kdr (Homo sapiens, UniProt P35968).
T1 construct: purchased Invitrogen (assay run by Invitrogen)
The assay is described as follows: Z'-Lyte FRET kinase assay (Invitrogen), Kdr. The following applies: read-out: IC50, activity toward kinase Kdr.

The next assay has as its target T2, Kit (Homo sapiens, UniProt P10721).
T2 construct: P1332.N6 BI PTP KIT M552-K948-X COD; His6 (N); made in house; host or cells: E. coli (PTP1B co-expressed)
The experiment in a line: AlphaScreen kinase assay, Kit. As to conditions: read-out: IC50, activity toward kinase Kit. For orientation: Alpha assays give light when donor and acceptor beads are brought close together.

The target in the next assay is T3, Ret (Homo sapiens, UniProt P07949).
T3 construct: P1378.pET-SF BI-PTP RET H661-R1012 HIS; made in house
T3 sequence (P07949 with tags, fused parts or gaps): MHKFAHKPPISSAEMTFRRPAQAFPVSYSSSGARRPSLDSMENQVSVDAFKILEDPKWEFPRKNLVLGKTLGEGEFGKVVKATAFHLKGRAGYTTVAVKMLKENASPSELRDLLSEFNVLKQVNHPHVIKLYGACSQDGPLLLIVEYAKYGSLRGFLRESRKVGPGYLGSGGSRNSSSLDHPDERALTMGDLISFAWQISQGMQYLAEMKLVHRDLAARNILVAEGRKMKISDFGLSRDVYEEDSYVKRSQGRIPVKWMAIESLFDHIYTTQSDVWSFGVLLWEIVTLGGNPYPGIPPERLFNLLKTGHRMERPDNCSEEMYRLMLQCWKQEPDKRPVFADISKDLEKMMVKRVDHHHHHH
The assay is described as follows: AlphaScreen kinase assay, Ret. The following applies: read-out: IC50, activity toward kinase Ret.

The target in the next assay is T4, Stk6 (Homo sapiens, UniProt O14965).
T4 construct: purchased Invitrogen (Carlsbad, Calif.), screening service
T4 sequence (O14965 1-403): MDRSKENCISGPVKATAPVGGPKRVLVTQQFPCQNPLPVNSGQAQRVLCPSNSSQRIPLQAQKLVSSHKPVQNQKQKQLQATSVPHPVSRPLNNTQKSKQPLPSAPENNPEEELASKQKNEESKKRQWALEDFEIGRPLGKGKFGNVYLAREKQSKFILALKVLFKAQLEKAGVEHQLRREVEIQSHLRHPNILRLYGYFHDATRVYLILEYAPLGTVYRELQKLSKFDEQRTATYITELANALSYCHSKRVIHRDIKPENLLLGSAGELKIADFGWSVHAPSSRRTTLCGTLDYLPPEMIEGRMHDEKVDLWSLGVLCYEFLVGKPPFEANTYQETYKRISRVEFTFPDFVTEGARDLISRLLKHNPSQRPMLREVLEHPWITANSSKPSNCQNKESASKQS
The experiment in a line: Z'-Lyte FRET kinase assay (Invitrogen), Stk6. The following applies: read-out: IC50, activity toward kinase Stk6.

In another assay the target is T5, B-Raf V600E (Homo sapiens, UniProt P15056, V600E).
T5 construct: P4254. pFastBacBD-CDC37 BRAF D437-K722-X, V600E; His6 with pFastBac HT leader (TEV site) (N); made in house; host or cells: Sf9 (baculovirus; chaperone CDC37 co-expressed)
T5 sequence (P15056 with tags, fused parts or gaps V600E): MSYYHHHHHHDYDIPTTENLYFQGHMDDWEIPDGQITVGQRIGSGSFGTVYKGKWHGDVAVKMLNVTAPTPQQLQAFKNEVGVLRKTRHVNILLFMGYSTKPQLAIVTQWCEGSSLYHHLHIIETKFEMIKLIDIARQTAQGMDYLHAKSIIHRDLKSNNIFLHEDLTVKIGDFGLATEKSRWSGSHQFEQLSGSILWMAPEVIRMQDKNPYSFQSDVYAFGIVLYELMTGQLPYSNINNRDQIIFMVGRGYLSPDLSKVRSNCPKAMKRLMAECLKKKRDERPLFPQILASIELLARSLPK
The assay is described as follows: AlphaScreen kinase assay, B-Raf V600E. The following applies: read-out: IC50, activity toward kinase B-Raf V600E.

Another assay addresses T6, Jnk3 (Homo sapiens, UniProt P53779).
T6 construct: purchased Upstate Biotechnology
The experiment in a line: AlphaScreen kinase assay, Jnk3. As to conditions: read-out: IC50, activity toward kinase Jnk3.

The next assay deals with T7, FGFR1 (Homo sapiens, UniProt P11362, C488A/C584S).
T7 construct: P1351.pET N6 BI-PTP FGFR A458-E765-X C488A, C584S; made in house; host or cells: E. coli (PTP1B co-expressed)
T7 sequence (P11362 458-765 C488A/C584S): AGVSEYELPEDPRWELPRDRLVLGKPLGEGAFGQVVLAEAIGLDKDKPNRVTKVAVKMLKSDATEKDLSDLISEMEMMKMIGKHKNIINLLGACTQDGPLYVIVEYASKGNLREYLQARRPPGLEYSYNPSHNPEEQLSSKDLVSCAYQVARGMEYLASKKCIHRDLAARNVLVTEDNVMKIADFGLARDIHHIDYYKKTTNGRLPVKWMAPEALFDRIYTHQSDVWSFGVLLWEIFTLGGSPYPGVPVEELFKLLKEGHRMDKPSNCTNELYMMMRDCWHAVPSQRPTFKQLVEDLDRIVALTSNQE
The assay is described as follows: AlphaScreen kinase assay, FGFR1. The following applies: read-out: IC50, activity toward kinase FGFR.

In a further assay the target is T8, B-Raf (Homo sapiens, UniProt P15056).
T8 construct: purchased Upstate Biotechnology
T8 sequence (P15056 whole entry): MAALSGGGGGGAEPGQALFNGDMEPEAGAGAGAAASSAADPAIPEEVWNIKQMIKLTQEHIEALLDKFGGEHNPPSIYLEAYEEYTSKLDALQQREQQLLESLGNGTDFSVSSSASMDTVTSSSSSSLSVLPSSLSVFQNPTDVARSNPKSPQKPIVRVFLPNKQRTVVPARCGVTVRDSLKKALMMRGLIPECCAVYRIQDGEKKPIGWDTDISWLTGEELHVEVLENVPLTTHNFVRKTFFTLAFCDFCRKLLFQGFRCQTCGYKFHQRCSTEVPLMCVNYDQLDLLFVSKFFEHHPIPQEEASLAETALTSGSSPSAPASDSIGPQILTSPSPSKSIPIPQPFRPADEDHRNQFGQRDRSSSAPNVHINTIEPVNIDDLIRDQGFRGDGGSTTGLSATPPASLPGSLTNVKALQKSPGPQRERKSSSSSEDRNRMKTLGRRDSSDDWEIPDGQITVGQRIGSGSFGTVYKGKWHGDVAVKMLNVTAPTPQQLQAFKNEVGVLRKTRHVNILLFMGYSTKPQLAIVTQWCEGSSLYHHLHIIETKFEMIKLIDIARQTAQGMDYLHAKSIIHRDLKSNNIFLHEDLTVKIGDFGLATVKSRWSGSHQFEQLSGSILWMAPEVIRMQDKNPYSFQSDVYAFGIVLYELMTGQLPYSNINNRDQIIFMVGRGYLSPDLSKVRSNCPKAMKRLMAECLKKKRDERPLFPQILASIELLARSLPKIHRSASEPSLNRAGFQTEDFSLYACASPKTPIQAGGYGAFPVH
The experiment in a line: AlphaScreen kinase assay, B-Raf. As to conditions: read-out: IC50, activity toward kinase B-Raf.

By pIC50 is commonly meant the negative decadic logarithm of the IC50, by convention in mol/L.

T6 sequence (P53779 whole entry): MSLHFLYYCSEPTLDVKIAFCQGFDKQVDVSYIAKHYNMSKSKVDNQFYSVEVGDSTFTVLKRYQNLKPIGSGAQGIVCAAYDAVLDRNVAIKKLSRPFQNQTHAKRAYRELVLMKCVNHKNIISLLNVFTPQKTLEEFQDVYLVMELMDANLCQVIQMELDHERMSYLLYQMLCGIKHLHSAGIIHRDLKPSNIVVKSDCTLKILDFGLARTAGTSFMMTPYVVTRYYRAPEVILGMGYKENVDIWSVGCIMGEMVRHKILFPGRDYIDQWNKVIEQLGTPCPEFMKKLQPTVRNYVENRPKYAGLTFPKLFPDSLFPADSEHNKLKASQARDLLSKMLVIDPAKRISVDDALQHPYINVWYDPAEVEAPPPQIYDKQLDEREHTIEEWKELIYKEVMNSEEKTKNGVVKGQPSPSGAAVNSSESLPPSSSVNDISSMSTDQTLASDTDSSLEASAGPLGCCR
T2 sequence (P10721 with tags, fused parts or gaps): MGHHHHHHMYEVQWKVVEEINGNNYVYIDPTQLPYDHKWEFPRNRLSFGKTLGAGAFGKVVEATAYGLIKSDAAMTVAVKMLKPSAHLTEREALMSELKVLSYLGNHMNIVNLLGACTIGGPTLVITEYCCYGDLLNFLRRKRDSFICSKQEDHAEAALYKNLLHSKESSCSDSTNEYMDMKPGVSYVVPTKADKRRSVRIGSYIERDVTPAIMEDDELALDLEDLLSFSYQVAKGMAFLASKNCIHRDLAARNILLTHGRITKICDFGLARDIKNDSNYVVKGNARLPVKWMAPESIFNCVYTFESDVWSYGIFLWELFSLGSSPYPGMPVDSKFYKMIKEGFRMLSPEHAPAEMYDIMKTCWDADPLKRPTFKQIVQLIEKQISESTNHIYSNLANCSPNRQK
T1 sequence (P35968 20-1356): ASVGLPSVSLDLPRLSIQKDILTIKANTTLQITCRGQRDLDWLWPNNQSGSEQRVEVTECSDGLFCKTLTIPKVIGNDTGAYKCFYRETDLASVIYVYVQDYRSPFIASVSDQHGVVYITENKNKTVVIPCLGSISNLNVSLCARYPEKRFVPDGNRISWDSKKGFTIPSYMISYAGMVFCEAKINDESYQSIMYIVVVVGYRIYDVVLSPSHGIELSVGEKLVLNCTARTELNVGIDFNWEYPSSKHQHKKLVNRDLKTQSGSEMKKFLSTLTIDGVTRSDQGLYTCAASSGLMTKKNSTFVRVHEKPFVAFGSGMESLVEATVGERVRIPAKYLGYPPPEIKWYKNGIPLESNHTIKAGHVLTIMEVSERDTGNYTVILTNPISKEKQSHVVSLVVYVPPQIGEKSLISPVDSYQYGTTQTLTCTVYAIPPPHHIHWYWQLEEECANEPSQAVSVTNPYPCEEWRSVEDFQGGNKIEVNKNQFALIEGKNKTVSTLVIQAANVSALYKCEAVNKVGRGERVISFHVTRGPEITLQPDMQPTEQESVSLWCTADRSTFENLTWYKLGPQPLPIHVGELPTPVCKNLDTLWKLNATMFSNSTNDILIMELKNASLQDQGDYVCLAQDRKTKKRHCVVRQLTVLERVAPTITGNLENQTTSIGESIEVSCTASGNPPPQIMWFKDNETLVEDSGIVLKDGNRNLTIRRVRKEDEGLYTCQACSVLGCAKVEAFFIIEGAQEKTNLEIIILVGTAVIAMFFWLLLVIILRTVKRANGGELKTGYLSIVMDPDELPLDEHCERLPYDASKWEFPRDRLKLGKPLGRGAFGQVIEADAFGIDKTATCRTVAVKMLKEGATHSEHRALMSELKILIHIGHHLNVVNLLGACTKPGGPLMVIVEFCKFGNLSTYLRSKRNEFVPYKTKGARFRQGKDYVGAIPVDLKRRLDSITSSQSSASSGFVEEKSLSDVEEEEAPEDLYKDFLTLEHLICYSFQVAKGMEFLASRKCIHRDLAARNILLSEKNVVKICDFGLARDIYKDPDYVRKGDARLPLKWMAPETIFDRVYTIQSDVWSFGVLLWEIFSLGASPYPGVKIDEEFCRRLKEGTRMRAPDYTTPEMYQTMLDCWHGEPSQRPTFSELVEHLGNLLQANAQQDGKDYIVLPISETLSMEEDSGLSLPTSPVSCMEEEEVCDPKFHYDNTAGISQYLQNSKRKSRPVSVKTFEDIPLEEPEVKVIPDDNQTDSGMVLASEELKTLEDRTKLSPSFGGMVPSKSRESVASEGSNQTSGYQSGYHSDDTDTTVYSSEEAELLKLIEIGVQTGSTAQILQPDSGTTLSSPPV

With `Fc1ccc(-c2c(CSCc3ccco3)[nH]c3ncccc23)cc1` [Compound P-0064], the negative logarithm of the IC50 (pIC50) at Kdr, at Kit, on Ret and at Stk6 was at least 5.00 each time.
As to `OCc1cccc(-c2ccnc3[nH]cc(Sc4cccs4)c23)c1` [Compound P-0071], the negative logarithm of the IC50 (pIC50) at B-Raf V600E, on Kdr, at Ret and at Stk6 was at least 5.00 each time.
For `CC(=O)c1cccc(-c2cnc3[nH]ccc3c2)c1` [Compound P-0080], the pIC50 at Jnk3 and on Stk6 was at least 5.00 throughout.
`CC(=O)c1cccc(-c2ccnc3[nH]cc(Sc4cccs4)c23)c1` [Compound P-0092]: the pIC50 on B-Raf V600E, at Kdr and on Stk6 was at least 5.00 each time.
On to `O=C(O)/C=C/c1cccc(-c2ccnc3[nH]cc(C(=O)c4ccc(Cl)cc4)c23)c1` [Compound P-0100], for which the pIC50 on B-Raf V600E, on Kdr, on Ret and at Stk6 was at least 5.00 each time.
As for `O=C(O)/C=C/c1cccc(-c2ccnc3[nH]cc(C(=O)c4cccc(Cl)c4Cl)c23)c1` [Compound P-0110], the negative logarithm of the IC50 (pIC50) on B-Raf V600E, on Kdr, on Ret and on Stk6 was at least 5.00 throughout.
With `CN(c1ccccc1)c1ccnc2[nH]ccc12` [Compound P-0118], the pIC50 at B-Raf V600E and on Stk6 was at least 5.00 throughout.
On to `c1ccc(COc2cccc(Cc3c[nH]c4ncc(-c5ccsc5)cc34)c2)cc1` [Compound P-0132], for which the pIC50 on FGFR1, on Jnk3, at Kit and at Stk6 was at least 5.00 each time.
Consider `COC(c1c(F)ccc(N(Cc2ccccc2)Cc2ccccc2)c1F)c1c[nH]c2ncc(-c3cccnc3)cc12` (centres unmarked) [Compound P-0143], for which the pIC50 on B-Raf, on Kdr and at Stk6 was at least 5.00 in each case.
Take `Cn1cccc1C(=O)c1c[nH]c2ncccc12` [Compound P-0147]: the negative logarithm of the IC50 (pIC50) at B-Raf V600E, on Kdr and at Stk6 was at least 5.00 each time.
As for `Cc1cccc(N(C)c2ccnc3[nH]ccc23)c1` [Compound P-0155], the pIC50 on Stk6 is at least 5.00.
In the case of `COc1cccc(-c2ccnc3[nH]cc(Sc4cccs4)c23)c1` [Compound P-0160], the pIC50 on B-Raf V600E and at Stk6 was at least 5.00 each time.
On to `Fc1cccc(-c2ccnc3[nH]cc(Sc4cccs4)c23)c1` [Compound P-0181], for which the pIC50 on B-Raf V600E, at Ret and on Stk6 was at least 5.00 in each case.
As for `CC(C)CNc1ccc(C(O)c2c[nH]c3ncccc23)cn1` (centres unmarked) [Compound P-0185], the pIC50 on B-Raf V600E and at Stk6 was at least 5.00 in each case.
Regarding `Cc1ccsc1Cc1c[nH]c2ncccc12` [Compound P-0191], the negative logarithm of the IC50 (pIC50) at B-Raf V600E and at Stk6 was at least 5.00 in each case.
Turning to `Cc1ccc(-c2ccnc3[nH]cc(Sc4cccs4)c23)cc1[N+](=O)[O-]` [Compound P-0199], the pIC50 on B-Raf V600E, on Kdr and at Stk6 was at least 5.00 each time.
Regarding `Brc1c[nH]c2ncccc12` [Compound P-0201], the pIC50 at Stk6 is at least 5.00.
On to `O=C(O)/C=C/c1ccc(-c2ccnc3[nH]ccc23)cc1` [Compound P-0203], for which the pIC50 at Kdr and at Stk6 was at least 5.00 in each case.
Take `COc1cccc(NC(=S)N2CCC(C(=O)c3c[nH]c4ncccc34)CC2)c1` [Compound P-0208]: the pIC50 at B-Raf V600E and on Stk6 was at least 5.00 each time.
Regarding `c1ccc(Nc2c[nH]c3ncccc23)cc1` [Compound P-0221, N-phenyl-1H-pyrrolo[2,3-b]pyridin-3-amine], the pIC50 on Stk6 was at least 5.00.
As for `Fc1cccc(-c2ccnc3[nH]ccc23)c1` [Compound P-0225], the pIC50 on Kdr and on Stk6 was at least 5.00 in each case.
As for `O=C(c1cccc(F)c1)c1ccc(-c2cnc3[nH]ccc3c2)s1` [Compound P-0235], the pIC50 at Kit and on Stk6 was at least 5.00 throughout.
Take `Cc1ccc(Sc2c[nH]c3nccc(-c4cccc(CO)c4)c23)cc1` [Compound P-0250]: the pIC50 at Ret and at Stk6 was at least 5.00 each time.
Consider `CC(C)CNc1ccc(C(=O)c2c[nH]c3ncccc23)cn1` [Compound P-0251], for which the pIC50 on Stk6 was at least 5.00.
Consider `c1csc(-c2c[nH]c3ncccc23)c1` [Compound P-0253], for which the pIC50 at Kit and on Stk6 was at least 5.00 throughout.
Turning to `c1cnc2[nH]cc(-c3ccoc3)c2c1` [Compound P-0260], the pIC50 on Kdr and at Stk6 was at least 5.00 in each case.
As for `OC(c1ccc(NCc2ccc(Cl)cc2)nc1)c1c[nH]c2ncccc12` (centres unmarked) [Compound P-0261], the pIC50 at B-Raf V600E, at Kdr and on Stk6 was at least 5.00 throughout.
With `O=C1c2ccccc2C(=O)N1Cc1ccc(-c2cnc3[nH]ccc3c2)cc1` [Compound P-0281], the pIC50 on Stk6 is at least 5.00.
For `FC(F)(F)c1cccc(-c2ccnc3[nH]cc(Sc4ccccn4)c23)c1` [Compound P-0290], the pIC50 at Stk6 is at least 5.00.
`O=C(c1ccc(Oc2cc(Cl)cc(Cl)c2)o1)c1c[nH]c2ncccc12` [Compound P-0295]: the pIC50 on B-Raf V600E, at Kdr and on Stk6 was at least 5.00 throughout.
On to `COc1ccc(-c2c(CSCC(C)C)[nH]c3ncccc23)cc1` [Compound P-0313], for which the pIC50 on Jnk3 and at Stk6 was at least 5.00 in each case.
For the compound `c1coc(-c2nc(-c3ccnc4[nH]ccc34)no2)c1` [Compound P-0319], the pIC50 on Kdr and at Stk6 was at least 5.00 each time.
Consider `c1coc(CNCc2c[nH]c3ncccc23)c1` [Compound P-0322], for which the pIC50 on Kdr and at Stk6 was at least 5.00 each time.
In the case of `O=C(c1ccc(Nc2cccc(OCc3ccccc3)c2)nc1)c1c[nH]c2ncccc12` [Compound P-0355], the pIC50 at B-Raf V600E and at Stk6 was at least 5.00 in each case.
Consider `N#Cc1ccnc2[nH]cc(Sc3cccs3)c12` [Compound P-0370], for which the pIC50 at Stk6 was at least 5.00.
In the case of `c1cc2cc(-c3ccoc3)cnc2[nH]1` [Compound P-0372], the pIC50 on Stk6 is at least 5.00.
Consider `COc1ccccc1Cc1c[nH]c2ncccc12` [Compound P-0406], for which the pIC50 at Stk6 is at least 5.00.
As for `O=C(c1c[nH]c2ncccc12)C1CCCCC1` [Compound P-0407], the pIC50 at Stk6 is at least 5.00.
Same read-out and setting: for `COc1cccc(-c2cnc3[nH]cc(Sc4cccs4)c3c2)c1` [Compound P-0417] the value was at least 5.00.
Consider `Cc1ccc(S(=O)(=O)Nc2ccc(Cc3c[nH]c4ncccc34)cc2)cc1` [Compound P-0426], for which the pIC50 on FGFR1 and on Stk6 was at least 5.00 in each case.
Consider `Cc1ccccc1-c1ccnc2[nH]cc(Sc3cccs3)c12` [Compound P-0441], for which the pIC50 on B-Raf V600E and on Stk6 was at least 5.00 throughout.
Consider `c1coc(-c2ccnc3[nH]ccc23)c1` [Compound P-0445], for which the pIC50 on Stk6 was at least 5.00.
Consider `Cc1cc(C(=O)c2c[nH]c3nccc(-c4cccc(/C=C/C(=O)O)c4)c23)n(C)n1` [Compound P-0469], for which the pIC50 at Ret and on Stk6 was at least 5.00 throughout.
Turning to `O=C(c1ccc(NCC2CCCCC2)nc1)c1c[nH]c2ncccc12` [Compound P-0471], the pIC50 at Stk6 is at least 5.00.
As to `Clc1ccnc2[nH]cc(Sc3cccs3)c12` [Compound P-0489], the pIC50 on FGFR1 and at Stk6 was at least 5.00 throughout.
Take `Cn1nc(C(C)(C)C)cc1C(=O)c1c[nH]c2nccc(-c3cccc(/C=C/C(=O)O)c3)c12` [Compound P-0546]: at Stk6, the pIC50 was at least 5.00.
